According to US6878727B2 (Agouron Pharmaceuticals, Inc., priority 2002, dated 2005):

Molecular target: T1, HCV polymerase (Hepatitis C virus genotype 1b, UniProt P26663)
T1 construct: 2.5 pmoles (0.15 μg) HCV polymerase protein in a final volume of 75 μL
Assay: HCV Polymerase Inhibition Assay
Assay type: biochemical
Conditions: @ 50 μM compound; given where it was impractical to calculate an IC50
Protocol: HCV Polymerase Inhibition Assay
The above-described compounds were tested for activity with HCV polymerase. Recombinant HCV polymerase was tested for its ability to perform primer/template-directed transcription in assays that contained 30 mM tris-HCl pH 7.2, 10 mM MgCl2, 20 mM NaCl, 1 mM Dithiothreitol (DTT), 0.05% Tween-20, 1% glycerol, 5 pmoles biotin-dG12 (primer), 0.5 pmoles poly(rC)300 (template), 1 μM GTP, 0.1-0.3 uCi α-^32P-GTP, and 2.5 pmoles (0.15 μg) HCV polymerase protein in a final volume of 75 μL. Reactions were initiated by addition of enzyme and incubated 30 minutes at 30° C. Reactions were stopped by addition of 33 mM EDTA, and polynucleotide products were collected by filtration through Diethylaminoethyl (DE) Filtermat papers (Wallac). Unincorporated triphosphate was removed by washing the filters with 5% dibasic sodium phosphate. The filters were counted in a Packard Tri-Lux Microbeta scintillation counter (Packard Bioscience, Meriden, Conn.). Compounds to be tested were added at various concentrations, e.g., 1 μm to 50 μm, from stocks in 10% DMSO-water (final DMSO is 1% in reaction).
IC50 values were estimated from the primary cpm data (collected in triplicate) using the formula: cpm (I)=cpm (no inhibitor)(1−([I]/([I]+IC50))). An IC50 value represents the concentration (in μM) of a compound that provides 50% inhibition of polymerase-directed transcription in the above assay. A percent inhibition value is expressed for a compound where it was impractical to calculate an IC50 value with available data. If the IC50 estimated by the above equation was less than 200 nM, it was recalculated using the following equation, which takes into account the enzyme concentration (30 nM) in the assay: cpm(I)=cpm(no inhibitor)(1−((((I+IC50+30e−9)−sqrt(((I+IC50+30e−9)^2)−4×30e−9×1)))/((2) (30e−9))). Curve fitting was performed using the program KaleidaGraph (Synergy Software, Reading, Pa.).

T1 sequence (P26663 2420-3010): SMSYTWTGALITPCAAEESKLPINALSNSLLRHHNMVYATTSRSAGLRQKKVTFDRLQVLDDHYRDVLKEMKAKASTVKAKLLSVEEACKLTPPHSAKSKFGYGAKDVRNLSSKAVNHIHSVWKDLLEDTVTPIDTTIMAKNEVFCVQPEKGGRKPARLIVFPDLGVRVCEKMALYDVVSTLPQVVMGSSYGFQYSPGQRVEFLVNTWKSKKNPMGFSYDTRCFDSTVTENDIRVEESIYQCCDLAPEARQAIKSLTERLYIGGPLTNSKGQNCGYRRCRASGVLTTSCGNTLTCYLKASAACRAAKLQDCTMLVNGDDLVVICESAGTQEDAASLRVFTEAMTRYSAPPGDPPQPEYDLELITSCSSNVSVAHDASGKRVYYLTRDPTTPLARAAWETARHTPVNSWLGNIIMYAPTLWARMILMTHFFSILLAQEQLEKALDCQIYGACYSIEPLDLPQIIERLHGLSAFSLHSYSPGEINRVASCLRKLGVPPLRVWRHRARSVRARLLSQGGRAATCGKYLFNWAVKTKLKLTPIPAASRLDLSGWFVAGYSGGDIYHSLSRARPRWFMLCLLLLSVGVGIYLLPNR

SMILES | inhibition at 50 µM [%]
CCOC1=CC(=O)OC(CCC#Cc2cccc(O)c2)(C2CCCC2)C1 (centres unmarked) [Example 15, 6-cyclopentyl-4-ethoxy-6-[4-(3-hydroxy-phenyl)-but-3-ynyl]-5,6-dihydro-pyran-2-one] | 27

Same assay, conditions: recombinant HCV polymerase, primer/template-directed transcription (biotin-dG12/poly(rC)300), 30 minutes at 30° C.

SMILES | IC50 [µM]
CC(=O)Nc1ccc(C#CCCC2(C3CCCC3)CC(=O)CC(=O)O2)cn1 (centres unmarked) [Example 11, N-{5-[4-(2-Cyclopentyl-4,6-dioxo-tetrahydro-pyran-2-yl)-but-1-ynyl]-pyridin-2-yl}-acetamide] | 67
O=C1CC(=O)OC(CCC#Cc2ccc3c(c2)OCCO3)(C2CCCC2)C1 (centres unmarked) [Example 9, 6-Cyclopentyl-6-[4-(2,3-dihydro-benzo[1,4]dioxin-6-yl)-but-3-ynyl]-dihydro-pyran-2,4-dione] | 11.7
COC(=O)Cc1ccc(C#CCCC2(C3CCCC3)CC(=O)CC(=O)O2)cc1 (centres unmarked) [Example 12, {4-[4-(2-cyclopentyl-4,6-dioxo-tetrahydro-pyran-2-yl)-but-1-ynyl]-phenyl}-acetic acid methyl ester] | 10.2
CC(C)c1cccc(C#CC2(C3CCCC3)CC(=O)CC(=O)O2)c1 (centres unmarked) [Example 3] | 8.5
O=C1CC(=O)OC(C#Cc2nccs2)(C2CCCC2)C1 (centres unmarked) [Example 2, Cyclopentyl-6-(1,3-thiazol-2-ylethynyl)dihydro-2H-pyran-2,4(3H)-dione] | 2.1
O=C1CC(=O)OC(CCC#Cc2ccc3scnc3c2)(C2CCCC2)C1 (centres unmarked) [Example 8, 6-(4-Benzothiazol-5-yl-but-3-ynyl)-6-cyclopentyl-dihydro-pyran-2,4-dione] | 4.5
COc1cccc(C#CCCC2(C3CCCC3)CC(=O)CC(=O)O2)c1 (centres unmarked) [Example 7, 6-Cyclopentyl-6-[4-(3-methoxy-phenyl)-but-3-ynyl]-dihydro-pyran-2,4-dione] | 12.1
C#CCCC1(C2CCCC2)CC(=O)C(Sc2ccccc2)C(=O)O1 (centres unmarked) [Example 16, 6-But-3-ynyl-6-cyclopentyl-3-phenylsulfanyl-dihydro-pyran-2,4-dione] | 80
O=C1CC(=O)OC(CCC#Cc2cccc(O)c2)(C2CCCC2)C1 (centres unmarked) [Example 13, 6-Cyclopentyl-6-[4-(3-hydroxy-phenyl)-but-3-ynyl]-dihydro-pyran-2,4-dione] | 4.5
C#CCCC1(C2CCCC2)CC(=O)CC(=O)O1 (centres unmarked) [Example 5, 6-but-3-ynyl-6-cyclopentyl-dihydro-pyran-2,4-dione] | 74
O=C1CC(=O)OC(CCC#Cc2ccc3c(c2)OCO3)(C2CCCC2)C1 (centres unmarked) [Example 10, 6-(4-Benzo[1,3]dioxol-5-yl-but-3-ynyl)-6-cyclopentyl-dihydro-pyran-2,4-dione] | 10.7
O=C1CC(=O)OC(CCC#Cc2ccccc2)(C2CCCC2)C1 (centres unmarked) [Example 6, 6-cyclopentyl-6-(4-phenyl-but-3-ynyl)-dihydro-pyran-2,4-dione] | 8.29
COc1ccc(C#CC2(C3CCCC3)CC(=O)CC(=O)O2)cc1 (centres unmarked) [Example 1, 6-cyclopentyl-6-[(4-methoxyphenyl)ethynyl]dihydro-2H-pyran-2,4(3H)-dione] | 12
O=C1CC(=O)OC(CCC#Cc2ccc3ocnc3c2)(C2CCCC2)C1 (centres unmarked) [Example 14, 6-(4-benzooxazol-5-yl-but-3-ynyl)-6-cyclopentyl-dihydro-pyran-2,4-dione] | 5.8
O=C1CC(CCC#Cc2cccc(O)c2)(C2CCCC2)OC(=O)C1Sc1ccccc1 (centres unmarked) [Example 17, 6-Cyclopentyl-6-[4-(3-hydroxy-phenyl)-but-3-ynyl]-3-phenylsulfanyl-dihydro-pyran-2,4-dione] | 7.6
COC(=O)Cc1ccc(C#CC2(C3CCCC3)CC(=O)CC(=O)O2)cc1 (centres unmarked) [Example 4] | 64.6
